ChEMBL document CHEMBL1147331, “Cytotoxic and antimalarial bisbenzylisoquinoline alkaloids from Stephania erecta” (J Nat Prod, 1993)
Converted amounts (≈) assume the structure as drawn.

Assays:
Plasmodium falciparum [1] = experiment: Antimalarial activity after 24 hrs against chloroquine-sensitive Plasmodium falciparum D6 infected type A+ human erythrocytes by [3H]hypoxanthine uptake; type: functional; conditions: read-out: ED50 (the source's name)
Plasmodium falciparum [2] = experiment: Antimalarial activity after 24 hrs against chloroquine-resistant Plasmodium falciparum W2 infected type A+ human erythrocytes by [3H]hypoxanthine uptake; type: functional; conditions: read-out: ED50 (the source's name)
[3] = Cytotoxicity against human BCA1 cells after 3 days by sulforhodamine B assay; type: cell-based; conditions: read-out: ED50
[4] = Cytotoxicity against human HT1080 cells after 3 days by sulforhodamine B assay; type: cell-based, HT-1080; conditions: read-out: ED50
[5] = Cytotoxicity against human LUC1 cells after 3 days by sulforhodamine B assay; type: cell-based; conditions: read-out: ED50
[6] = Cytotoxicity against human SK-MEL-2 cells after 3 days by sulforhodamine B assay; type: cell-based; conditions: read-out: ED50
[7] = Cytotoxicity against human Col1 cells after 3 days by sulforhodamine B assay; type: cell-based; conditions: read-out: ED50
[8] = Cytotoxicity against human KB cells after 3 days by sulforhodamine B assay; type: cell-based; conditions: read-out: ED50
[9] = Cytotoxicity against human KBV1 cells after 3 days by sulforhodamine B assay; type: cell-based, KB-V1; conditions: read-out: ED50
[10] = Cytotoxicity against mouse P388 cells after 2 days by sulforhodamine B assay; type: cell-based; conditions: read-out: ED50
[11] = Cytotoxicity against human A431 cells after 3 days by sulforhodamine B assay; type: cell-based, A-431; conditions: read-out: ED50
[12] = Cytotoxicity against human LNCAP cells after 3 days by sulforhodamine B assay; type: cell-based; conditions: read-out: ED50
[13] = Cytotoxicity against human ZR-75-1 cells after 3 days by sulforhodamine B assay; type: cell-based; conditions: read-out: ED50
[14] = Selectivity index, ratio of ED50 for human BCA1 cells to ED50 for chloroquine-sensitive Plasmodium falciparum D6; type: toxicity, cell-based; conditions: read-out: Ratio ED50
[15] = Selectivity index, ratio of ED50 for human BCA1 cells to ED50 for chloroquine-resistant Plasmodium falciparum W2; type: toxicity, cell-based; conditions: read-out: Ratio ED50
[16] = Selectivity index, ratio of ED50 for human HT1080 cells to ED50 for chloroquine-sensitive Plasmodium falciparum D6; type: toxicity, cell-based, HT-1080; conditions: read-out: Ratio ED50
[17] = Selectivity index, ratio of ED50 for human HT1080 cells to ED50 for chloroquine-resistant Plasmodium falciparum W2; type: toxicity, cell-based, HT-1080; conditions: read-out: Ratio ED50
[18] = Selectivity index, ratio of ED50 for human LUC1 cells to ED50 for chloroquine-sensitive Plasmodium falciparum D6; type: toxicity, cell-based; conditions: read-out: Ratio ED50
[19] = Selectivity index, ratio of ED50 for human LUC1 cells to ED50 for chloroquine-resistant Plasmodium falciparum W2; type: toxicity, cell-based; conditions: read-out: Ratio ED50
[20] = Selectivity index, ratio of ED50 for human MEL2 cells to ED50 for chloroquine-sensitive Plasmodium falciparum D6; type: toxicity, cell-based; conditions: read-out: Ratio ED50
[21] = Selectivity index, ratio of ED50 for human MEL2 cells to ED50 for chloroquine-resistant Plasmodium falciparum W2; type: toxicity, cell-based; conditions: read-out: Ratio ED50
[22] = Selectivity index, ratio of ED50 for human COL1 cells to ED50 for chloroquine-sensitive Plasmodium falciparum D6; type: toxicity, cell-based; conditions: read-out: Ratio ED50
[23] = Selectivity index, ratio of ED50 for human COL1 cells to ED50 for chloroquine-resistant Plasmodium falciparum W2; type: toxicity, cell-based; conditions: read-out: Ratio ED50
[24] = Selectivity index, ratio of ED50 for human KB cells to ED50 for chloroquine-sensitive Plasmodium falciparum D6; type: toxicity, cell-based; conditions: read-out: Ratio ED50
[25] = Selectivity index, ratio of ED50 for human KB cells to ED50 for chloroquine-resistant Plasmodium falciparum W2; type: toxicity, cell-based; conditions: read-out: Ratio ED50
[26] = Selectivity index, ratio of ED50 for human KB-V1 cells to ED50 for chloroquine-sensitive Plasmodium falciparum D6; type: toxicity, cell-based; conditions: read-out: Ratio ED50
[27] = Selectivity index, ratio of ED50 for human KB-V1 cells to ED50 for chloroquine-resistant Plasmodium falciparum W2; type: toxicity, cell-based; conditions: read-out: Ratio ED50
[28] = Selectivity index, ratio of ED50 for human LNCaP cells to ED50 for chloroquine-sensitive Plasmodium falciparum D6; type: toxicity, cell-based; conditions: read-out: Ratio ED50
[29] = Selectivity index, ratio of ED50 for human LNCaP cells to ED50 for chloroquine-resistant Plasmodium falciparum W2; type: toxicity, cell-based; conditions: read-out: Ratio ED50
[30] = Selectivity index, ratio of ED50 for human ZR-75-1 cells to ED50 for chloroquine-sensitive Plasmodium falciparum D6; type: toxicity, cell-based; conditions: read-out: Ratio ED50
[31] = Selectivity index, ratio of ED50 for human ZR-75-1 cells to ED50 for chloroquine-resistant Plasmodium falciparum W2; type: toxicity, cell-based; conditions: read-out: Ratio ED50
in vitro [32] = conditions: mouse, P388 cells
Description: Selectivity index, ratio of ED50 for mice (Mus musculus) P388 cells to ED50 for chloroquine-sensitive Plasmodium falciparum D6

in vitro [33] = conditions: mouse, P388 cells; remark: listed apart in the source
Description: Selectivity index, ratio of ED50 for mice (Mus musculus) P388 cells to ED50 for chloroquine-resistant Plasmodium falciparum W2

in vitro [34] = conditions: human, A431 cells
Description: Selectivity index, ratio of ED50 for human A431 cells to ED50 for chloroquine-sensitive Plasmodium falciparum D6

in vitro [35] = conditions: human, A431 cells; remark: listed apart in the source
Description: Selectivity index, ratio of ED50 for human A431 cells to ED50 for chloroquine-resistant Plasmodium falciparum W2

Compound	EC50 (Plasmodium falciparum [1]) [µg/mL]	EC50 (Plasmodium falciparum [2]) [µg/mL]	CC50 at 72 h [3] [µg/mL]	CC50 at 72 h [4] [µg/mL]	CC50 at 72 h [5] [µg/mL]	CC50 at 72 h [6] [µg/mL]	CC50 at 72 h [7] [µg/mL]	CC50 at 72 h [8] [µg/mL]	CC50 at 72 h [9] [µg/mL]	CC50 at 48 h [10] [µg/mL]	CC50 at 72 h [11] [µg/mL]	CC50 at 72 h [12] [µg/mL]	CC50 at 72 h [13] [µg/mL]	selectivity ratio [14]	selectivity ratio [15]	selectivity ratio [16]	selectivity ratio [17]	selectivity ratio [18]	selectivity ratio [19]	selectivity ratio [20]	other results
COc1ccc2cc1Oc1ccc(cc1)C[C@H]1c3c(cc(OC)c4c3Oc3cc5c(cc3O4)CCN=C5C2)CCN1C	0.307 (≈ 0.547 µM)	0.256 (≈ 0.457 µM)	4.6 (≈ 8.2 µM)	2.1 (≈ 3.75 µM)	1.7 (≈ 3.03 µM)	9.9 (≈ 17.7 µM)	5 (≈ 8.92 µM)	2.8 (≈ 4.99 µM)	6.8 (≈ 12.1 µM)	3.1 (≈ 5.53 µM)	6 (≈ 10.7 µM)	2 (≈ 3.57 µM)	0.7 (≈ 1.25 µM)	15	18	7	8	6	7	32	selectivity ratio [21]: 39; selectivity ratio [22]: 16; selectivity ratio [23]: 20; selectivity ratio [24]: 9; selectivity ratio [25]: 11; selectivity ratio [26]: 22; selectivity ratio [27]: 27; selectivity ratio [28]: 7; selectivity ratio [29]: 8; selectivity ratio [30]: 2; selectivity ratio [31]: 3; selectivity ratio (in vitro [32]): 10; selectivity ratio (in vitro [33]): 12; selectivity ratio (in vitro [34]): 20; selectivity ratio (in vitro [35]): 23
C=C[C@H]1CN2CC[C@H]1C[C@H]2[C@H](O)c1ccnc2ccc(OC)cc12 [QUININE]	0.0076 (≈ 0.0234 µM)	0.0308 (≈ 0.0949 µM)	> 20	> 20	> 20	> 20	> 20	> 20	5.6 (≈ 17.3 µM)	> 5	> 20	> 20	> 20	> 2630	649	> 2630	649	> 2630	649	> 2630	selectivity ratio [21]: 649; selectivity ratio [22]: > 2630; selectivity ratio [23]: 649; selectivity ratio [24]: > 2630; selectivity ratio [25]: 649; selectivity ratio [26]: 737; selectivity ratio [27]: 182; selectivity ratio [28]: > 2630; selectivity ratio [29]: 649; selectivity ratio [30]: > 2630; selectivity ratio [31]: 649; selectivity ratio (in vitro [32]): > 658; selectivity ratio (in vitro [33]): > 658; selectivity ratio (in vitro [34]): > 2630; selectivity ratio (in vitro [35]): 649
COc1ccc2cc1Oc1ccc(cc1)C[C@H]1c3c(cc(OC)c(O)c3Oc3cc4c(cc3OC)CCN(C)[C@@H]4C2)CCN1C [HOMOAROMOLINE]	0.105 (≈ 0.172 µM)	0.288 (≈ 0.474 µM)	3.6 (≈ 5.91 µM)	9 (≈ 14.8 µM)	8.6 (≈ 14.1 µM)	9 (≈ 14.8 µM)	10 (≈ 16.4 µM)	6.3 (≈ 10.3 µM)	3.1 (≈ 5.09 µM)	3.7 (≈ 6.08 µM)	8.9 (≈ 14.6 µM)	3.4 (≈ 5.59 µM)	1.2 (≈ 1.97 µM)	34	13	86	31	93	34	86	selectivity ratio [21]: 31; selectivity ratio [22]: 96; selectivity ratio [23]: 35; selectivity ratio [24]: 60; selectivity ratio [25]: 22; selectivity ratio [26]: 30; selectivity ratio [27]: 11; selectivity ratio [28]: 33; selectivity ratio [29]: 12; selectivity ratio [30]: 19; selectivity ratio [31]: 7; selectivity ratio (in vitro [32]): 35; selectivity ratio (in vitro [33]): 13; selectivity ratio (in vitro [34]): 85; selectivity ratio (in vitro [35]): 31
COc1ccc2cc1Oc1ccc(cc1)C[C@H]1c3c(cc4c(c3Oc3cc5c(cc3OC)CCN(C)[C@@H]5C2)OCO4)CCN1C [CEPHARANTHINE]	0.14 (≈ 0.231 µM)	0.295 (≈ 0.486 µM)	4.7 (≈ 7.75 µM)	6.1 (≈ 10.1 µM)	8.8 (≈ 14.5 µM)	14.5 (≈ 23.9 µM)	9 (≈ 14.8 µM)	5.9 (≈ 9.72 µM)	0.9 (≈ 1.48 µM)	0.3 (≈ 0.494 µM)	2.1 (≈ 3.46 µM)	5.6 (≈ 9.23 µM)	1 (≈ 1.65 µM)	34	16	44	21	52	25	103	selectivity ratio [21]: 49; selectivity ratio [22]: 64; selectivity ratio [23]: 31; selectivity ratio [24]: 42; selectivity ratio [25]: 20; selectivity ratio [26]: 6; selectivity ratio [27]: 3; selectivity ratio [28]: 40; selectivity ratio [29]: 19; selectivity ratio [30]: 7; selectivity ratio [31]: 3; selectivity ratio (in vitro [32]): 2; selectivity ratio (in vitro [33]): 1; selectivity ratio (in vitro [34]): 15; selectivity ratio (in vitro [35]): 7
